Test results from article PMC12402003 (Frontiers in Nutrition, 2025).

How the values were obtained:
[1] = tested on: Caco-2 cell monolayers; assay: Bidirectional transport across Caco-2 cell monolayer; assay type: in vitro ADME, human; conditions: for efflux rate (BL to AP side) / absorption rate (AP to BL side): 50 μM; for efflux rate (BL to AP side): up to 150 min; for absorption rate (AP to BL side): within 150 min; for ER (efflux rate) / Papp (AP → BL) / Papp (BL → AP): 50 μmol/L, no inhibitor; for transport mechanism into the small intestine: inferred from ER < 1 and inhibitor study
Procedure: The cells were seeded at a density of approximately 10^5 cells/cm^2 on TranswellTM filter (Corning Inc., Lowell, MA) and cultured for 21 d before use. Cell monolayer integrity was controlled by the measurement of trans-epithelial electrical resistance (TEER) with an EVOM epithelial voltammeter equipped with an electrode (World Precision Instruments, Sarasota, FL, United States). […] (a) R(%)=CBL×VBL/CAP×VAP×100 In this, R represents the absorption rate (as a percentage); CBL is the anthocyanin concentration of the BL side (in μM); VBL is the volume of anthocyanins from the BL (in L); CAP is the initial anthocyanin concentration of the AP side (in μM), and VAP is the volume of anthocyanins in the AP chamber (in L). The absorption rate of anthocyanins from BL to AP is calculated using the following Equation b: (b) R(%)=CAP×VAP/CBL×VBL×100 In this, R represents the absorption rate (as a percentage); CAP is the anthocyanin concentration from the AP side (in μM); VAP is the volume of anthocyanins in the AP chamber (in mL); CBL is the initial concentration from the BL side (in μM) and VBL is the volume of anthocyanins in the BL chamber (in L).

[2] = tested on: Caco-2/HepG2 co-culture model; assay: Lipid metabolites and AST/ALT in OA-induced Caco-2/HepG2 co-culture model; assay type: cell-based, human; conditions: for reduction in TC content: HepG2 on BL side after transport by Caco-2, 50 μM
Procedure: Caco-2 and HepG2 cells were cultured separately at 37°C with 5% CO2 in DMEM medium containing 10% fetal bovine serum, 50 U/mL penicillin, and 50 μg/mL streptomycin. Caco-2 cells were cultured in 96-well plates for 24 h and harvested with trypsin–EDTA to seed to the AP side (1 × 10^5 cells/mL, 500 μL) in monolayers. 1,500 μL of Minimum Essential Medium (MEM) was simultaneously added to the BL compartment. HepG2 cells were seeded to the BL compartment at the day 15. The total culture period was 18 d.
The co-culture cells were collected by the previous method from the above mentioned, and the cells were lysed on ice for 30 min using IP cell lysis buffer (20 mM Tris pH 7.5, 200 mM NaCl, 10% glycerol, 0.2 mM DTT, 0.1 mM EDTA, 1 mM protease inhibitor). The contents of TG, T-CHO, LDL-C, HDL-C, AST, and ALT from HepG2 were measured following the test kit instructions. Intracellular protein content was measured to calibrate the levels of relevant metabolites using the BCA Protein Quantitation Kit (Beyotime Biotechnology).

[3] = tested on: Plin1; assay: Western blot of Plin1 protein in Caco-2/HepG2 co-culture; assay type: cell-based, human; conditions: OA-induced co-culture, 50 μM, 24 h; compared vs. OA
Procedure: (§1) Cells from the co-culture model were lysed and supernatants were collected. The protein concentrations were determined using the BCA Protein Quantitation Kit. Then electrophoresis of samples was conducted using a SDS-PAGE kit (Beyotime Biotechnology) following the manufacturer’s instructions and transferred to poly-vinylidene difluoride (PVDF) membrane. Next, membranes were incubated in 5% nonfat milk to block non-specific antibody binding for 30 min at room temperature and followed by incubating with primary antibodies and secondary antibodies. Chemiluminescence based-images of the blots were acquired using ImageQuant LAS 500 system (GE, United States). Protein bands were quantified using ImageJ (version 1.53a) software. The changes in expression levels of these proteins detected finally are used to evaluate the sample’s effect on lipid metabolism.

[4] = tested on: Pparγ; assay: Western blot of PPARγ protein in Caco-2/HepG2 co-culture; assay type: cell-based, human; conditions: OA-induced co-culture, 50 μM, 24 h; compared vs. OA
Procedure: as §1

[5] = target: MRP2 (Homo sapiens, UniProt Q92887); assay: Bidirectional Caco-2 transport with probenecid (MRP inhibitor); conditions: for ER (efflux rate) / Papp (AP → BL) / Papp (BL → AP): 50 μmol/L, + Prob (probenecid 1 mM); for substrate of MRP2: bidirectional assay with probenecid 1 mM
Procedure: Transport assay: The monolayers were pre-incubated at 37°C for 30–40 min with 5% CO2 in a pre-warmed media, which contained Hanks Balanced Salt solution (HBSS, BioWhittaker), HEPES buffer and D-glucose. For the transport of apical (AP) side to basolateral (BL) side, the media was removed after pre-incubation and 0.5 mL of polyphenols was added to the AP side. 1.5 mL of HBSS were added to the BL side. Then 200 μL of samples were taken from the BL side at 30, 60, 90, 120 and 150 min, respectively. The BA sample volumes removed were therewith replenished with same volumes of the HBSS solution. For the transport of BL to AP, polyphenols were added to BL and samples were taken from AP at a series of time points as above mentioned. The TEER was measured from the beginning to the end of the assay.
Caco-2 cells (1×10^5 cells/well) were cultured in 96-well plates for 24 h until differentiation, with a TEER value exceeding 400 Ω·cm^2. Bidirectional transport experiments from AP to BL or from BL to AP were performed as mentioned in the transport assay. The apparent permeability coefficients, cumulative release and initial concentrations and efflux rates were determined. In brief, the total transport time was set to 150 min. For AP to BL transport, 0.5 mL of polyphenols were added to AP with 1.5 mL of HBSS to the BL side. 200 μL of samples were collected from BL at different time points (30, 60, 90, 120, and 150 min). For BL to AP transport, polyphenols were added to BL and samples were collected from AP as the mentioned above.

[6] = tested on: HepG2 cells; assay: Oil Red O lipid content in OA-induced high-fat HepG2 cells; conditions: 1 mM OA-induced HepG2 cells, 50 μM, 24 h
Procedure: For the lipid content assay: The cells were treated with 1 mM oleic acid (OA). […] The absorbance value was recorded at 530 nm using a microplate absorbance reader. Isopropanol solvent was used as a control ([14]).

MRP2, sequence (Q92887 whole entry): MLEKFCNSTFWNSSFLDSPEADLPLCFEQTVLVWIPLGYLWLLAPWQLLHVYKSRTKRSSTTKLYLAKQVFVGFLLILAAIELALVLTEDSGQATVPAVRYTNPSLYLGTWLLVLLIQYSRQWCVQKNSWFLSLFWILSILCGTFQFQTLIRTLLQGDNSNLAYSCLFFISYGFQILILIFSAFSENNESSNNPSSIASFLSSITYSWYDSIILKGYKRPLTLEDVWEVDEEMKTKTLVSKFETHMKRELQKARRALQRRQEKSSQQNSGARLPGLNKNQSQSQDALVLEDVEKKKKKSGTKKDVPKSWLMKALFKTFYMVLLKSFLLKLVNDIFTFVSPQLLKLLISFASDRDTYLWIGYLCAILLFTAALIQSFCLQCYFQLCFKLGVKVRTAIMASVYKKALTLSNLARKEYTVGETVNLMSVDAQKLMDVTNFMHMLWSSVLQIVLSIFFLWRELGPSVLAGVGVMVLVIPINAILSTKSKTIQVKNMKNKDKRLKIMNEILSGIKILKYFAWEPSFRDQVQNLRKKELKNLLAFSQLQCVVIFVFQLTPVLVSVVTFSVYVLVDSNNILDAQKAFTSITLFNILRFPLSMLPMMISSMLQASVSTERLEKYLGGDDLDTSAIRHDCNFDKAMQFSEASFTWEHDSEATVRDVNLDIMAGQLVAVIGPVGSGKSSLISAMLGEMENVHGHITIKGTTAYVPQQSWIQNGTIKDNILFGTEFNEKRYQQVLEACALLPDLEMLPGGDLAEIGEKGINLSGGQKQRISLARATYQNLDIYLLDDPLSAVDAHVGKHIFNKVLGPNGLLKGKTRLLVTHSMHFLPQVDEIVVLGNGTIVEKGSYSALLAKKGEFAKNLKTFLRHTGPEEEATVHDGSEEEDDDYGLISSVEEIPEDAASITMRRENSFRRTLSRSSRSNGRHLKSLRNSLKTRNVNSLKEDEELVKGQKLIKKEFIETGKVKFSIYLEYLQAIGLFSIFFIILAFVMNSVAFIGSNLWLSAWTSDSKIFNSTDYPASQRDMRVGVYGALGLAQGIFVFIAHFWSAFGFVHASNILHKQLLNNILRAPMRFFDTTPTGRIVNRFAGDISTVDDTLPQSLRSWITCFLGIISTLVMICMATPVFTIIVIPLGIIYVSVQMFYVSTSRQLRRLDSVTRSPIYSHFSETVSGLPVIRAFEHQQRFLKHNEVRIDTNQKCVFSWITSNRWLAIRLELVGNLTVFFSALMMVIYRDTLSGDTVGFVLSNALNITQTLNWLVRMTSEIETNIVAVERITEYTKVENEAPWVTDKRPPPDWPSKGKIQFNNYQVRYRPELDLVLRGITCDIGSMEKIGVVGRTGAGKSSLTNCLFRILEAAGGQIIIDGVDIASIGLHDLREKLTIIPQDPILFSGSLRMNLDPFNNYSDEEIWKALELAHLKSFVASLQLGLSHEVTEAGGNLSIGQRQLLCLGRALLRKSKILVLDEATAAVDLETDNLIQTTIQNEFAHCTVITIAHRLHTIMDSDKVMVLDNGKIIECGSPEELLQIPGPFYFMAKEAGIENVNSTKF

OC[C@H]1O[C@@H](Oc2cc3c(O)cc(O)cc3[o+]c2-c2ccc(O)c(O)c2)[C@H](O)[C@@H](O)[C@@H]1O [C3G, Cyanidin-3-O-glucoside]
efflux rate (BL to AP side) [1]: 15.41%
absorption rate (AP to BL side) [1]: 22.47%
ER (efflux rate) ([1]; 30 min): 0.49
Papp (AP → BL) ([1]; 30 min): 3.9 ± 1.32^Aa* ×10^−5 cm /s
Papp (BL → AP) ([1]; 30 min): 1.8 ± 0.14^Ba ×10^−5 cm /s
ER (efflux rate) ([1]; 60 min): 0.56
Papp (AP → BL) ([1]; 60 min): 1.8 ± 0.07^Cb* ×10^−5 cm /s
Papp (BL → AP) ([1]; 60 min): 1.0 ± 0.17^Bb ×10^−5 cm /s
ER (efflux rate) ([1]; 90 min): 0.53
Papp (AP → BL) ([1]; 90 min): 1.1 ± 0.02^Cb* ×10^−5 cm /s
Papp (BL → AP) ([1]; 90 min): 0.6 ± 0.04^Cc ×10^−5 cm /s
ER (efflux rate) ([1]; 120 min): 0.57
Papp (AP → BL) ([1]; 120 min): 0.9 ± 0.03^Cb* ×10^−5 cm /s
Papp (BL → AP) ([1]; 120 min): 0.5 ± 0.08^Ccd ×10^−5 cm /s
ER (efflux rate) ([1]; 150 min): 0.54
Papp (AP → BL) ([1]; 150 min): 0.7 ± 0.03^Bb* ×10^−5 cm /s
Papp (BL → AP) ([1]; 150 min): 0.4 ± 0.04^Cde ×10^−5 cm /s
transport mechanism into the small intestine [1]: passive diffusion
reduction of ALT level [2]: not observed
reduction of AST level [2]: not observed
reduction of OA-induced LDL-C increase ([2]; 50 μM): did not change
reduction in TC content [2]: 7.69%
Plin1 protein expression level (densitometry) [3]: 1.12
PPARγ protein expression level (densitometry) [4]: 1.03
ER (efflux rate) ([5]; 30 min): 0.63
Papp (AP → BL) ([5]; 30 min): 8.47 ± 0.39 ×10^−5 cm /s
Papp (BL → AP) ([5]; 30 min): 5.31 ± 0.72 ×10^−5 cm /s
ER (efflux rate) ([5]; 60 min): 0.61
Papp (AP → BL) ([5]; 60 min): 4.55 ± 0.09 ×10^−5 cm /s
Papp (BL → AP) ([5]; 60 min): 2.79 ± 0.37 ×10^−5 cm /s
ER (efflux rate) ([5]; 90 min): 0.52
Papp (AP → BL) ([5]; 90 min): 3.12 ± 0.02 ×10^−5 cm /s
Papp (BL → AP) ([5]; 90 min): 1.62 ± 0.08 ×10^−5 cm /s
ER (efflux rate) ([5]; 120 min): 0.53
Papp (AP → BL) ([5]; 120 min): 2.45 ± 0.03 ×10^−5 cm /s
Papp (BL → AP) ([5]; 120 min): 1.29 ± 0.09 ×10^−5 cm /s
ER (efflux rate) ([5]; 150 min): 0.56
Papp (AP → BL) ([5]; 150 min): 1.83 ± 0.09 ×10^−5 cm /s
Papp (BL → AP) ([5]; 150 min): 1.06 ± 0.04 ×10^−5 cm /s
substrate of MRP2 [5]: not substrates
decrease of lipid absorption rate (Oil Red O lipid droplets) [6]: 22.35%

O.Oc1cc(O)c2c(c1)O[C@H](c1ccc(O)c(O)c1)[C@@H](O)C2 [catechin]
efflux rate (BL to AP side) [1]: 68.71%
absorption rate (AP to BL side) [1]: 73.41%
ER (efflux rate) ([1]; 30 min): 0.77
Papp (AP → BL) ([1]; 30 min): 7.9 ± 0.26^Ba ×10^−5 cm /s
Papp (BL → AP) ([1]; 30 min): 6.1 ± 2.78^Aa ×10^−5 cm /s
ER (efflux rate) ([1]; 60 min): 0.55
Papp (AP → BL) ([1]; 60 min): 4.6 ± 0.43^Ab* ×10^−5 cm /s
Papp (BL → AP) ([1]; 60 min): 2.5 ± 0.28^Ab ×10^−5 cm /s
ER (efflux rate) ([1]; 90 min): 0.52
Papp (BL → AP) ([1]; 90 min): 1.6 ± 0.11^Ab ×10^−5 cm /s
ER (efflux rate) ([1]; 120 min): 0.51
Papp (AP → BL) ([1]; 120 min): 2.5 ± 0.19^Ad* ×10^−5 cm /s
Papp (BL → AP) ([1]; 120 min): 1.31 ± 0.13^Ab ×10^−5 cm /s
ER (efflux rate) ([1]; 150 min): 0.48
Papp (AP → BL) ([1]; 150 min): 2.2 ± 0.52^Ad* ×10^−5 cm /s
Papp (BL → AP) ([1]; 150 min): 1.0 ± 0.03^Ab ×10^−5 cm /s
transport mechanism into the small intestine [1]: passive diffusion
reduction of ALT level [2]: not observed
reduction of AST level [2]: not observed
reduction in TC content [2]: 7.69%
Plin1 protein expression level (densitometry) [3]: 1.14
PPARγ protein expression level (densitometry) [4]: 1.08
ER (efflux rate) ([5]; 30 min): 0.58
Papp (AP → BL) ([5]; 30 min): 9.19 ± 0.53 ×10^−5 cm /s
Papp (BL → AP) ([5]; 30 min): 5.36 ± 0.52 ×10^−5 cm /s
ER (efflux rate) ([5]; 60 min): 0.56
Papp (AP → BL) ([5]; 60 min): 4.46 ± 0.36 ×10^−5 cm /s
Papp (BL → AP) ([5]; 60 min): 2.50 ± 0.27 ×10^−5 cm /s
ER (efflux rate) ([5]; 90 min): 0.52
Papp (BL → AP) ([5]; 90 min): 1.64 ± 0.37 ×10^−5 cm /s
ER (efflux rate) ([5]; 120 min): 0.51
Papp (AP → BL) ([5]; 120 min): 2.48 ± 0.19 ×10^−5 cm /s
Papp (BL → AP) ([5]; 120 min): 1.27 ± 0.27 ×10^−5 cm /s
ER (efflux rate) ([5]; 150 min): 0.48
Papp (AP → BL) ([5]; 150 min): 1.93 ± 0.49 ×10^−5 cm /s
Papp (BL → AP) ([5]; 150 min): 0.98 ± 0.34 ×10^−5 cm /s
substrate of MRP2 [5]: not substrates
decrease of lipid absorption rate (Oil Red O lipid droplets) [6]: 31.24%
